Measurements reported in patent publication US4048161A, “7-[α-(Benzimidazol-2-ylcarbonylamino)-arylacetamido]ephalosporins” (Eli Lilly and Company, priority 1976, dated 1977).
≈ marks a conversion by molar mass, not a printed value.

How the values were obtained:
Format in all cases: cell-based
Serratia marcescens = assay: Gradient plate in vitro antibiotic activity (MIC), Serratia marcescens; conditions: read-out: Minimum Inhibitory Concentration
Description: (§1) The values in the Table are the minimum inhibitory concentrations (MIC) for the test compounds against the indicated microorganisms. The MIC values were obtained using the gradient plate in vitro method for determining antibiotic activity.

Aerobacter aerogenes = assay: Gradient plate in vitro antibiotic activity (MIC), Aerobacter aerogenes; conditions: Klebsiella aerogenes, read-out: Minimum Inhibitory Concentration
Description: as §1, with “The antibiotic activity of the cephalosporin compounds of this invention is illustrated by the data provided in the following Table of representative compounds. The values” for “The values”

[1] = tested on: X400 methicillin resistant Staphylococcus; assay: Gradient plate in vitro antibiotic activity (MIC), X400 methicillin resistant Staphylococcus; conditions: read-out: Minimum Inhibitory Concentration
Description: as §1, with “The antibiotic activity of the cephalosporin compounds of this invention is illustrated by the data provided in the following Table of representative compounds. The values” for “The values”
resistant Staphylococcus. X-400 is a methicillin
resistant Staphylococcus.

Escherichia coli = assay: Gradient plate in vitro antibiotic activity (MIC), Escherichia coli; conditions: read-out: Minimum Inhibitory Concentration
Description: as §1

[2] = tested on: V84 penicillin resistant Staphylococcus; assay: Gradient plate in vitro antibiotic activity (MIC), V84 penicillin resistant Staphylococcus; conditions: read-out: Minimum Inhibitory Concentration
Description: as §1, with “The antibiotic activity of the cephalosporin compounds of this invention is illustrated by the data provided in the following Table of representative compounds. The values” for “The values”
(§2) 1. Test organisms V41, V32, and V84 are penicillin

Klebsiella pneumoniae = assay: Gradient plate in vitro antibiotic activity (MIC), Klebsiella pneumoniae; conditions: read-out: Minimum Inhibitory Concentration
Description: as §1

[3] = tested on: V32 penicillin resistant Staphylococcus; assay: Gradient plate in vitro antibiotic activity (MIC), V32 penicillin resistant Staphylococcus; conditions: read-out: Minimum Inhibitory Concentration
Description: as §1, with “The antibiotic activity of the cephalosporin compounds of this invention is illustrated by the data provided in the following Table of representative compounds. The values” for “The values”
as §2

Shigella sp. = assay: Gradient plate in vitro antibiotic activity (MIC), Shigella sp.; conditions: read-out: Minimum Inhibitory Concentration
Description: as §1, with “The antibiotic activity of the cephalosporin compounds of this invention is illustrated by the data provided in the following Table of representative compounds. The values” for “The values”

[4] = tested on: V41 penicillin resistant Staphylococcus; assay: Gradient plate in vitro antibiotic activity (MIC), V41 penicillin resistant Staphylococcus; conditions: read-out: Minimum Inhibitory Concentration
Description: as §1, with “The antibiotic activity of the cephalosporin compounds of this invention is illustrated by the data provided in the following Table of representative compounds. The values” for “The values”
as §2

Salmonella heidelberg = assay: Gradient plate in vitro antibiotic activity (MIC), Salmonella heidelberg; conditions: Salmonella enterica, read-out: Minimum Inhibitory Concentration
Description: as §1

Pseudomonas aeruginosa = assay: Gradient plate in vitro antibiotic activity (MIC), Pseudomonas aeruginosa; conditions: read-out: Minimum Inhibitory Concentration
Description: as §1

| Structure (SMILES) | MIC (Serratia marcescens) [µg/mL] | MIC (Aerobacter aerogenes) [µg/mL] | MIC [1] [µg/mL] | MIC (Escherichia coli) [µg/mL] | MIC [2] [µg/mL] | MIC (Klebsiella pneumoniae) [µg/mL] | MIC [3] [µg/mL] | MIC (Shigella sp.) [µg/mL] | MIC [4] [µg/mL] | MIC (Salmonella heidelberg) [µg/mL] | MIC (Pseudomonas aeruginosa) [µg/mL] |
| --- | --- | --- | --- | --- | --- | --- | --- | --- | --- | --- | --- |
| CC(=O)OCC1=C(C(=O)O)N2C(=O)C(NC(=O)C(NC(=O)c3nc4ccccc4[nH]3)c3ccccc3)C2SC1 (centres unmarked) [A] | 100 (≈ 182 µM) | 18.3 (≈ 33.3 µM) | > 20 | 26.5 (≈ 48.2 µM) | 0.6 (≈ 1.09 µM) | 18.5 (≈ 33.7 µM) | 5 (≈ 9.1 µM) | 15 (≈ 27.3 µM) | 4 (≈ 7.28 µM) | 22 (≈ 40 µM) | 25 (≈ 45.5 µM) |
| Cn1nnnc1SCC1=C(C(=O)O)N2C(=O)C(NC(=O)C(NC(=O)c3nc4ccccc4[nH]3)c3ccccc3)C2SC1 (centres unmarked) [B] | 21.5 (≈ 35.5 µM) | 8.5 (≈ 14 µM) | > 20 | 18.5 (≈ 30.5 µM) | 0.7 (≈ 1.16 µM) | 5 (≈ 8.26 µM) | 7 (≈ 11.6 µM) | 5 (≈ 8.26 µM) | 5 (≈ 8.26 µM) | 6.5 (≈ 10.7 µM) | 22 (≈ 36.3 µM) |
| Cn1nnnc1SCC1=C(C(=O)O)N2C(=O)C(NC(=O)C(NC(=O)c3nc4ccccc4[nH]3)c3ccc(O)cc3)C2SC1 (centres unmarked) [C] | 20.7 (≈ 33.3 µM) | 13 (≈ 20.9 µM) | 60 (≈ 96.5 µM) | 7.5 (≈ 12.1 µM) | 0.8 (≈ 1.29 µM) | 0.9 (≈ 1.45 µM) | 0.9 (≈ 1.45 µM) | 5.5 (≈ 8.85 µM) | 0.9 (≈ 1.45 µM) | 8 (≈ 12.9 µM) | 10.5 (≈ 16.9 µM) |
| Cn1nnnc1SCC1=C(C(=O)O)N2C(=O)C(NC(=O)C(NC(=O)c3nc4ccccc4[nH]3)c3cccs3)C2SC1 (centres unmarked) [D] | 14.8 (≈ 24.2 µM) | 10 (≈ 16.3 µM) | 19.5 (≈ 31.9 µM) | 7 (≈ 11.4 µM) | 0.5 (≈ 0.817 µM) | 0.6 (≈ 0.981 µM) | 0.6 (≈ 0.981 µM) | 4 (≈ 6.54 µM) | 0.6 (≈ 0.981 µM) | 7.5 (≈ 12.3 µM) | 14.8 (≈ 24.2 µM) |
| Cc1nnc(SCC2=C(C(=O)O)N3C(=O)C(NC(=O)C(NC(=O)c4nc5ccccc5[nH]4)c4ccc(O)cc4)C3SC2)s1 (centres unmarked) [E] | 70 (≈ 110 µM) | 21.5 (≈ 33.7 µM) | 100 (≈ 157 µM) | 16 (≈ 25.1 µM) | 1 (≈ 1.57 µM) | 4.5 (≈ 7.06 µM) | 5 (≈ 7.84 µM) | 10 (≈ 15.7 µM) | 4 (≈ 6.27 µM) | 16 (≈ 25.1 µM) | 18.5 (≈ 29 µM) |
| NC(=O)OCC1=C(C(=O)O)N2C(=O)C(NC(=O)C(NC(=O)c3nc4ccccc4[nH]3)c3ccc(O)cc3)C2SC1 (centres unmarked) [F] | > 200 | 55 (≈ 97.1 µM) | 120 (≈ 212 µM) | 55 (≈ 97.1 µM) | 0.8 (≈ 1.41 µM) | 10 (≈ 17.7 µM) | 0.9 (≈ 1.59 µM) | 19.5 (≈ 34.4 µM) | 0.9 (≈ 1.59 µM) | 19.5 (≈ 34.4 µM) | 19.5 (≈ 34.4 µM) |
| Cn1c(SCC2=C(C(=O)O)N3C(=O)C(NC(=O)C(NC(=O)c4nc5ccccc5[nH]4)c4ccc(O)cc4)C3SC2)nnc(O)c1=O (centres unmarked) [G] | 41 (≈ 61.7 µM) | 19.2 (≈ 28.9 µM) | > 200 | 11 (≈ 16.5 µM) | 0.8 (≈ 1.2 µM) | 1 (≈ 1.5 µM) | 1.8 (≈ 2.71 µM) | 6.7 (≈ 10.1 µM) | 0.8 (≈ 1.2 µM) | 8.5 (≈ 12.8 µM) | 60 (≈ 90.3 µM) |
